In PubChem BioAssay (NCI):
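Cultured in 96-well plates, cells were exposed to test compound for 48 hours across five concentrations. Definition used: TGI = concentration required for complete inhibition of growth.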

How the values were obtained:
Test in all cases: NCI anticancer screen, dose series, 48 h
ACHN renal = tested on: ACHN renal
HOP-18 NSCLC = tested on: HOP-18 NSCLC
HCT-15 colon = tested on: HCT-15 colon
HOP-92 NSCLC = tested on: HOP-92 NSCLC
UACC-257 melanoma = tested on: UACC-257 melanoma
SN12C renal = tested on: SN12C renal
U251 CNS = tested on: U251 CNS
SNB-75 CNS = tested on: SNB-75 CNS
SNB-78 CNS = tested on: SNB-78 CNS
OVCAR-3 ovarian = tested on: OVCAR-3 ovarian
LOX IMVI melanoma = tested on: LOX IMVI melanoma
HL-60(TB) leukemia = tested on: HL-60(TB) leukemia
NCI-H522 lung = tested on: NCI-H522 lung
786-0 renal = tested on: 786-0 renal
TK-10 renal = tested on: TK-10 renal
NCI-H23 lung = tested on: NCI-H23 lung
KM20L2 colon = tested on: KM20L2 colon
HCT-116 colon = tested on: HCT-116 colon
SK-OV-3 ovarian = tested on: SK-OV-3 ovarian
CCRF-CEM leukemia = tested on: CCRF-CEM leukemia
HT29 colon = tested on: HT29 colon
OVCAR-4 ovarian = tested on: OVCAR-4 ovarian
K-562 leukemia = tested on: K-562 leukemia
DMS 273 small cell lung = tested on: DMS 273 small cell lung
SK-MEL-5 melanoma = tested on: SK-MEL-5 melanoma
DMS 114 small cell lung = tested on: DMS 114 small cell lung
DLD-1 colon = tested on: DLD-1 colon
HCC-2998 colon = tested on: HCC-2998 colon
MOLT-4 leukemia = tested on: MOLT-4 leukemia
NCI-H226 lung = tested on: NCI-H226 lung
HOP-62 NSCLC = tested on: HOP-62 NSCLC
SW-620 colon = tested on: SW-620 colon
RXF 393 renal = tested on: RXF 393 renal
SK-MEL-28 melanoma = tested on: SK-MEL-28 melanoma
NCI-H460 lung = tested on: NCI-H460 lung
OVCAR-8 ovarian = tested on: OVCAR-8 ovarian
RXF-631 renal = tested on: RXF-631 renal
KM12 colon = tested on: KM12 colon
SNB-19 CNS = tested on: SNB-19 CNS
LXFL 529 NSCLC = tested on: LXFL 529 NSCLC
SF-268 CNS = tested on: SF-268 CNS
SF-539 CNS = tested on: SF-539 CNS
UACC-62 melanoma = tested on: UACC-62 melanoma
OVCAR-5 ovarian = tested on: OVCAR-5 ovarian
IGROV1 ovarian = tested on: IGROV1 ovarian
CAKI-1 renal = tested on: CAKI-1 renal
SF-295 CNS = tested on: SF-295 CNS
UO-31 renal = tested on: UO-31 renal
A498 renal = tested on: A498 renal
RPMI-8226 leukemia = tested on: RPMI-8226 leukemia
MALME-3M melanoma = tested on: MALME-3M melanoma
M14 melanoma = tested on: M14 melanoma
EKVX NSCLC = tested on: EKVX NSCLC
COLO 205 colon = tested on: COLO 205 colon
A549 NSCLC = tested on: A549 NSCLC
SK-MEL-2 melanoma = tested on: SK-MEL-2 melanoma
M19-MEL melanoma = tested on: M19-MEL melanoma
SR leukemia = tested on: SR leukemia
XF 498 CNS = tested on: XF 498 CNS

Measured: TGI

Cc1ccc(CC(C)N)cc1 (centres undefined)
not listed: M19-MEL melanoma | SR leukemia | XF 498 CNS
> 100 µM: all other assays above

O=C(NC1CCCC1=O)c1ccccc1 (centres undefined)
not listed: HOP-18 NSCLC | HCT-15 colon | LOX IMVI melanoma | NCI-H522 lung | HCC-2998 colon | LXFL 529 NSCLC | RPMI-8226 leukemia | COLO 205 colon
> 100 µM: all other assays above

O=P1(Oc2ccccc2)C(c2ccccc2)C(c2ccccc2)=NN1c1ccccc1 (centres undefined)
36.4 µM: NCI-H522 lung | COLO 205 colon
35.3 µM: UACC-62 melanoma
89.3 µM: DMS 273 small cell lung
50.2 µM: OVCAR-5 ovarian
84.6 µM: A498 renal
66 µM: K-562 leukemia
35.9 µM: SF-539 CNS
89.5 µM: SF-295 CNS
65 µM: CAKI-1 renal
54.4 µM: SK-OV-3 ovarian
45.7 µM: LXFL 529 NSCLC
89.8 µM: HCC-2998 colon
34.3 µM: DLD-1 colon
42.2 µM: U251 CNS | OVCAR-3 ovarian
75.8 µM: UACC-257 melanoma
64.4 µM: KM12 colon
43.8 µM: DMS 114 small cell lung
54.9 µM: M19-MEL melanoma
40.7 µM: RXF 393 renal
31.6 µM: LOX IMVI melanoma | SK-MEL-2 melanoma
44.7 µM: HCT-15 colon
94.3 µM: SN12C renal
77.6 µM: ACHN renal
51.9 µM: NCI-H23 lung
33 µM: HT29 colon
69.9 µM: IGROV1 ovarian
55 µM: NCI-H226 lung
93.8 µM: A549 NSCLC
57 µM: MOLT-4 leukemia
31.3 µM: HCT-116 colon
71.3 µM: HOP-62 NSCLC
47 µM: HL-60(TB) leukemia
60.9 µM: NCI-H460 lung
44.9 µM: KM20L2 colon
64.2 µM: SK-MEL-28 melanoma
93.6 µM: SF-268 CNS
86.3 µM: OVCAR-4 ovarian
39.6 µM: M14 melanoma
53.1 µM: SW-620 colon
not listed: HOP-92 NSCLC | SK-MEL-5 melanoma | UO-31 renal | RPMI-8226 leukemia | SR leukemia
> 100 µM: all other assays above

O=C(Cc1ccccc1)NN1C(=O)C(Cl)C1c1ccccc1O (centres undefined)
89.6 µM: M19-MEL melanoma
38.2 µM: NCI-H460 lung
46.5 µM: DMS 114 small cell lung
30.9 µM: M14 melanoma
52.5 µM: NCI-H226 lung
18.8 µM: HL-60(TB) leukemia
86.1 µM: MALME-3M melanoma
82 µM: SNB-19 CNS
71.5 µM: UACC-257 melanoma
36.8 µM: UO-31 renal
61.2 µM: HOP-18 NSCLC
26.7 µM: EKVX NSCLC
not listed: HOP-92 NSCLC | SK-MEL-5 melanoma | RXF-631 renal | KM12 colon | SF-539 CNS | A498 renal
> 100 µM: all other assays above
